In patent publication US5420276A, “Analogs of oxetanyl purines and pyrimidines” (Abbott Laboratories, priority 1993, dated 1995):
In brackets after ≈: the same amount, converted by molar mass. Where two headings read alike, the source gives them in different places.

Key:
[1] = test system: Herpes simplex type 1 (HSV-1) strain E-377; assay: CPE-inhibition assay, herpes simplex type 1 strain E-377 in Vero cells; type: cell-based, herpes simplex virus type 1
Description: (§1) The challenge viruses were propagated and assayed in cells that were pregrown as monolayer cultures in plastic tissue culture flasks and 96-well plates, using cell culture media appropriate for the host cell cultures. The following viruses and host cell cultures were employed:
(§2) green monkey kidney (Vero)
(§3) On the day of use, a weighed sample of each compound to be evaluated was dissolved and diluted in serial 10^0.5 dilutions in the culture medium appropriate for each virus-host cell system.
(§4) Mammalian cells were pregrown as monolayers in wells of COSTAR 96-well tissue culture plates using suitable cell culture media. Stock viruses were pretitered according to the method of Reed and Muench (Amer. J. Hyg. 27:493-497, 1938) and diluted in cell culture medium to yield 32 CCID50 (cell culture infectious dose, 50%) units per 0.1 ml. Antiviral assays were designed to test seven concentrations of each compound, from cytotoxic to noncytotoxic levels, in triplicate against each of the challenge viruses in microtiter plate wells containing suitable cell monolayers. To each of the replicate cell cultures were added 0.1 ml of the test drug solution and 0.1 ml of virus suspension. Cell controls containing medium alone, virus controls containing medium and virus, and drug cytotoxicity controls containing medium and each drug concentration were run simultaneously with the test samples assayed in each experiment. […] The cell monolayers were examined microscopically for virus-induced CPE and for drug cytotoxicity.
(§5) Antiviral activity was determined by calculating the degree of inhibition of virus-induced CPE in drug-treated, virus-infected cell cultures by means of a virus rating (VR). The VR is a standard weighted measurement of antiviral activity taking into account both the degree of CPE inhibition and drug cytotoxicity, and is determined by a modification of the method of Ehrlich et al. (Ann. N.Y. Acad. Sci. 130: 5-16, 1965) as described below. CPE was graded for each individual culture in each microtiter plate well according to the following scale:
(§6) 4=100% of the cells affected by virus;
(§7) 3=75% of the cells affected by virus;
(§8) 2=50% of the cells affected by virus;
(§9) 1=25% of the cells affected by virus;
(§10) 0=No CPE; normal cell monolayer.
(§11) The VR was calculated as 0.1 of the sum of the numerical differences between the recorded CPE grade of each test well and that of the corresponding virus control in the culture plate. Numerical differences between the scores of test wells containing a drug concentration which was partially cytotoxic (p) and their corresponding virus controls were halved.
(§12) The minimum inhibitory drug concentration which reduced the cytopathogenic effect (CPE) by 50% (MIC50) was calculated by using a regression analysis program for semilog curve fitting. A therapeutic index (TI) for each active compound for each susceptible virus was determined by dividing the minimum cytotoxic concentration of the test compound by the MIC50.

[2] = test system: Herpes simplex type 2 (HSV-2) strain MS; assay: CPE-inhibition assay, herpes simplex type 2 strain MS in Vero cells; type: cell-based, herpes simplex virus type 2
Description: as §1, §2, §3, §4, §5, §6, §7, §8, §9, §10, §11, §12

[3] = Drug cytotoxicity in Vero cells (microscopic, CPE-inhibition assay); type: cell-based; settings: african green monkey, minimum drug concentration causing any cytotoxicity, read-out: MTC
Description: as §4, §5, §12

[4] = test system: Varicella-Zoster Virus (VZV) clinical isolate DM625; assay: VZV plaque reduction assay; type: cell-based; settings: Human alphaherpesvirus 3, 144 h, VZV in HFF; for EC50: minimum concentration required to inhibit plaque formation by 50%, read-out: MIC50
Description: The compounds of the invention were evaluated for selective activity against varicella zoster virus (VCV) utilizing a plaque reduction assay procedure. The challenge virus was a clinical isolate designated DM625, obtained from Dr. Richard Whitley of the University of Alabama Hospitals, Birmingham, Ala. The virus had been passaged and titrated in cultures of human foreskin fibroblasts (HFF).
(§13) For the plaque reduction assay, sixth to twelfth passage human foreskin fibroblasts were seeded in wells of 12-well tissue culture plates and incubated at 37° C. in a humidified atmosphere containing 2% CO2 in air. Subconfluent HFF were rinsed with MEM and exposed to 0.5 ml/well of a suspension of VZV diluted in MEM+2% FBS for 2 hours at 37° C. Following the virus adsorption period, the inocula were removed and the infected cell layers were rinsed with MEM. Triplicate VZV-infected cell culture wells were treated with 1.0 ml of each concentration of test compound (in MEM+2% FBS). Six untreated virus-infected cell cultures and triplicate untreated uninfected cell cultures were fed with 1.0 ml of MEM+2% FBS to serve as controls. Wells containing uninfected HFF were treated with each concentration of test compound to monitor the test compound cytotoxicity. The 12-well plates were incubated at 37° C. in the CO2 incubator. At 48 hours post-virus infection (p.i.), fluids in all plate wells were replaced with fresh test compound and/or culture medium.
Six days p.i., the VZV plaques were counted (unstained, low magnification).The effect of each concentration of test compound on plaque formation was determined by comparing the mean number of plaques in the replicate test compound-treated cultures with the mean plaque counts of the untreated virus control cultures.
The MIC50 value is the minimum concentration of test Compound required to inhibit plaque formation by 50%.

[5] = MTT test compound cytotoxicity in human foreskin fibroblasts; type: cell-based; settings: hff cells, read-out: MTT assay (Percent of control)
Description: as §13
The test compound cytotoxicity control cultures were examined microscopically for gross morphologic changes, then treated with MTT and 30% SDS. The blue color of the MTT formazan was measured spectrophotometrically at 570 nm. Test compound cytotoxicity was determined by comparing the absorbance (O.D.) of each test compound control with the mean O.D. of the cell control cultures and expressed as percent of control.

[6] = test system: Herpes Simplex Virus Type 1; assay: Neutral red dye uptake assay for antiviral activity, HSV-1 in Vero cells; type: cell-based; settings: Human alphaherpesvirus 1, HSV-1, Vero, concentration at which 50% CPE would be observed, read-out: MIC50
Description: (§14) Vero cell monolayers were harvested by trypsinization. The number of viable cells per ml. was determined by staining an aliquot with trypan blue and counting in a hemocytometer. Cell densities were adjusted in growth medium to contain 4×10^5 cells/mi. 96-well sterile tissue culture plates were seeded with 100 μl/well of the adjusted cell suspensions, i.e., 4×10^4 cells/well. Seeded plates were incubated overnight at 37° C. with CO2.
(§15) After overnight incubation, monolayers were approximately confluent. The growth medium was removed and the monolayers in each cell were infected with 100 μl of virus diluted in maintenance medium to produce approximately 90% cytopathogenic effect (CPE) after 2 to 3 days incubation. The virus was allowed to adsorb for 1 hour at 37° C. with 4 to 6% CO2. Controls for cell growth were overlayed with virus-free maintenance medium. The maintenance medium containing residual virus was removed.
(§16) The test compounds were dissolved and/or diluted in maintenance medium to the concentration desired for testing and were added to the wells of the plate. Aliquots (100 μl ) of each concentration were added to wells in replicate (duplicate or triplicate). Controls for virus activity were overlayed with drug-free maintenance medium. Replicate wells containing only maintenance medium served as controls for background absorbance levels.
After incubation, the medium was removed from all the wells. 100 μl of neutral red solution was added to each well and the plate was incubated at 37° C. without CO2 for 2 hours. After the 2 hour incubation, the excess neutral red solution was removed. […]
The neutral red stain taken up by the viable cells was extracted by adding 100 μl/well of acidified methanol, pH 1.0. […] The amount of neutral red stain extracted into the methanol was quantified by determining the absorbance at a wavelength of 540 nm.
The percent CPE in virus controls was determined by the following formula: [formula]
The percent CPE in cells infected with virus and treated with the test compound was determined by the following formula: [formula] […]

in vitro = type: cell-based, African green monkey; settings: monkey, vero cells
Description: as §14, §15, §16
After incubation, the medium was removed from all the wells. 100 μl of neutral red solution was added to each well and the plate was incubated at 37° C. without CO2 for 2 hours. After the 2 hour incubation, the excess neutral red solution was removed. The plates were washed with 100 μl/well of PBS, pH 7.2 and then the PBS was removed.
The neutral red stain taken up by the viable cells was extracted by adding 100 μl/well of acidified methanol, pH 1.0. (The acidified methanol fixed the cells to the well). The plate was allowed to stand at room temperature for at least 15 minutes to allow for maximum extraction. The amount of neutral red stain extracted into the methanol was quantified by determining the absorbance at a wavelength of 540 nm. […]

HSV-1 (E-377) = assay: CPE inhibition assay (MTT), HSV-1 (E-377) in Vero cells; type: cell-based, herpes simplex virus type 1; settings: Human alphaherpesvirus 1, inhibited CPE by 50%
Description: Vero cells were pregrown as monolayers in wells of COSTAR 96-well tissue culture plates using suitable cell culture media. Stock viruses were pretitered according to the method of Reed and Muench (Amer. J. Hyg. 27 493 (1938)) and diluted in cell culture medium to yield 32 CCID50 (cell culture infectious dose, 50%) units per 0.1 mL. Antiviral assays were designed to test six concentrations of each compound, from cytotoxic to noncytotoxic levels, in triplicate against each of the challenge viruses in microtiter plate wells containing cell monolayers. To each of the replicate cell cultures were added 0.1 mL of the test-compound solution and 0.1 mL of virus suspension. Two compounds were evaluated per plate. The following controls were included:
(1) Cell controls containing cells+medium;
(2) Untreated, virus-infected cell controls;
(3) Test-compound cytotoxicity controls containing uninfected, test-compound treated cells;
(4) Test-compound color controls-test-compound+medium (no cells); and
(5) Reagent (experiment medium) controls-medium only (no cells).
The covered plates were incubated at 37° C. in a humidified atmosphere containing 2% CO2. When cytopathogenic effect (CPE) in untreated virus control wells reached 100%, 20 μL of 3-(4,5-dimethyl-thiazol-2-yl)-2,5-diphenyl tetrazolium bromide (MTT) (dissolved in PBS at 5 mg/mL) was pipetted into each of the plate wells. The plates were incubated at 37° C. for six hours; then 40 μL of 30% SDS (in 0.02N HCl) was added to each well. After overnight incubation at 37° C., the blue color or the MTT formazan was measured spectrophotometrically at 570 nm. The optical density (OD) value of each culture is a function of the amount of formazan produced which is proportional to the number of viable cells. A computer program was utilized to calculate the percent (CPE) reciprocal of % CPE reduction) of the virus-infected wells and % cell viability of the uninfected test-compound control wells.
The IC50 value is the minimum test-compound concentration (μg/mL) that inhibited CPE by 50% calculated by using a regression analysis program for semilog curve fitting. The TC25 value is the minimum test-compound concentration (μg/mL) that reduced cell viability by 25%.

Question: Which “VR (Virus Rating)” value ([1]; HSV-1 (E-377)) does the source give for `Cc1cn([C@@H]2O[C@H](CO)[C@H]2CO)c(=O)[nH]c1=O` [Example 21, 1-([2'R, 3'R, 4'S]-3',4'-Bis(hydroxymethyl)-2'-oxetanyl)5-methyluracil] here?
Answer: 5.9

Question: What about the IC50 ([1]; Human alphaherpesvirus 1, HSV-1 (E-377), minimum drug concentration that inhibited the CPE by 50%, read-out: ID50 (the source's name)) of the same compound?
Answer: 0.2 mg/L (≈ 0.826 µM)

Question: What about the “VR (Virus Rating)” value ([2]; HSV-2 (MS)) of the same compound?
Answer: 2.9

Question: What about the IC50 ([2]; Human alphaherpesvirus 2, HSV-2 (MS), minimum drug concentration that inhibited the CPE by 50%, read-out: ID50 (the source's name)) of the same compound?
Answer: 44.3 mg/L (≈ 183 µM)

Question: What about the MCC ([3]; HSV-1 (E-377)) of the same compound?
Answer: 320 µg/mL

Question: And the MCC ([3]; HSV-2 (MS))?
Answer: > 320 µg/mL

Question: And the inhibition at 0.032 µM [4]?
Answer: 16%

Question: What about the inhibition at 0.1 µM [4] of the same compound?
Answer: 55%

Question: What about the inhibition at 0.32 µM [4] of the same compound?
Answer: 97%

Question: What about the inhibition at 1 µM [4] of the same compound?
Answer: 100%

Question: What about the inhibition at 3.2 µM [4] of the same compound?
Answer: 100%

Question: What about the EC50 [4] of the same compound?
Answer: 0.09 mg/L (≈ 0.372 µM)

Question: What about the viability at 0.1 µM [5] of the same compound?
Answer: 93%

Question: And the viability at 0.32 µM [5]?
Answer: 84%

Question: What about the viability at 1 µM [5] of the same compound?
Answer: 87%

Question: And the viability at 3.2 µM [5]?
Answer: 87%

Question: With `CCc1cn([C@@H]2O[C@H](CO)[C@H]2CO)c(=O)[nH]c1=O` [Example 48, 1-([2'R, 3'R, 4'S]-3',4'-Bis(hydroxymethyl)-2'-oxetanyl)-5-ethyluracil] as the compound, how does the EC50 [6] read?
Answer: 0.06 mg/L (≈ 0.234 µM)

Question: What about the CC50 (in vitro) of the same compound?
Answer: 350 mg/L (≈ 1370 µM)

Question: Which results are given for `CC#Cc1cn([C@@H]2O[C@H](CO)[C@H]2CO)c(=O)[nH]c1=O` [Example 68, 1-([2'R, 3'R, 4'S]-3',4'-Bis(hydroxymethyl)-2'-oxetanyl)-5-propynyluracil]?
Answer: inhibition at 0.032 µM [4]: 3%; inhibition at 0.1 µM [4]: 38%; inhibition at 0.32 µM [4]: 92%; inhibition at 1 µM [4]: 99%; inhibition at 3.2 µM [4]: 100%; EC50 [4]: 0.045 mg/L (≈ 0.169 µM); viability at 0.032 µM ([5]; 0.032 μM): 100%; viability at 0.1 µM [5]: 100%; viability at 0.32 µM [5]: 100%; viability at 1 µM [5]: 98%; viability at 3.2 µM [5]: 100%

Question: Which results are given for `O=c1[nH]c(=O)n([C@@H]2O[C@H](CO)[C@H]2CO)cc1C=CCl` [Example 50, 1-([2'R, 3'R, 4'S]-3',4'-Bis(hydroxymethyl)-2'-oxetanyl)-5-(2-chloro-1-vinyl)uracil]?
Answer: inhibition at 0.0032 µM ([4]; 0.0032 μM): 7%; inhibition at 0.01 µM ([4]; 0.01 μM): 45%; inhibition at 0.032 µM [4]: 90%; inhibition at 0.1 µM [4]: 99%; inhibition at 0.32 µM [4]: 98%; inhibition at 1 µM [4]: 99%; EC50 [4]: 0.004 mg/L (≈ 0.0139 µM); viability at 0.1 µM [5]: 100%; viability at 0.32 µM [5]: 100%; viability at 1 µM [5]: 100%; IC50 (HSV-1 (E-377)): 0.74 mg/L (≈ 2.56 µM)
